Common to all, as to experiment: Weeding effect in post-emergence stage
Common to all, as to format: in vivo
Holding throughout (conditions): 250 g/ha; 2 leaf stage; 15 days after application; fresh weight control rate

The test system of one assay is Abutilon theophrasti. The gist of the method:
(§1)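 Pot-grown weeds sprayed post-emergence at the 2-leaf stage, 2 weeks after sowing, with compound in acetone/Tween 80 plus 1.5 L/ha methyl oleate concentrate at 500–15 g/ha. Fresh-weight growth control scored after 15 days in greenhouse, mean of three replicates, graded levels 0–5 (5: >85%, 0: <5%).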

For a further assay, the system named is Echinochloa crusgali. Put shortly:
as §1

The subject of the next assay is Digitaria sanguinalis. The gist of the method: as §1
For the next assay, the system named is Setaria viridis. Put shortly:
as §1

A further assay has as its system Amaranthus retroflexus. Put shortly:
as §1

With `C#CCC[S@@+]([O-])c1c(C(F)(F)F)ccc(C(=O)Nc2nnc(C)o2)c1F` [Compound 24], in the assay with Abutilon theophrasti, the “weeding effect in post-emergence stage, activity level (growth control rate), Abutilon theophrasti” value (from here on “weeding effect … Abutilon theophrasti”) was 5 (Level 5: growth control rate is above 85%). Also, in the assay on Echinochloa crusgali, the “weeding effect in post-emergence stage, activity level (growth control rate), Echinochloa crusgali” value (from here on “weeding effect … Echinochloa crusgali”) is given as 5 (Level 5: growth control rate is above 85%). The “weeding effect in post-emergence stage, activity level (growth control rate), Digitaria sanguinalis” value (from here on “weeding effect … Digitaria sanguinalis”) with Digitaria sanguinalis is 5 (Level 5: growth control rate is above 85%). Also, in the assay on Setaria viridis, the “weeding effect in post-emergence stage, activity level (growth control rate), Setaria viridis” value (shortened to “weeding effect … Setaria viridis”) is 5 (Level 5: growth control rate is above 85%). The “weeding effect in post-emergence stage, activity level (growth control rate), Amaranthus retroflexus” value (from here on “weeding effect … Amaranthus retroflexus”) in the assay with Amaranthus retroflexus is 5 (Level 5: growth control rate is above 85%).
With `CCCC[S@@+]([O-])c1c(C(F)(F)F)ccc(C(=O)Nc2nnco2)c1F` [Compound 575], in the assay with Abutilon theophrasti, the “weeding effect … Abutilon theophrasti” value is reported as 5 (Level 5: growth control rate is above 85%). Further, the “weeding effect … Echinochloa crusgali” value in the assay on Echinochloa crusgali is 5 (Level 5: growth control rate is above 85%). In the assay with Digitaria sanguinalis, the “weeding effect … Digitaria sanguinalis” value is 5 (Level 5: growth control rate is above 85%). Besides, the “weeding effect … Setaria viridis” value with Setaria viridis is given as 5 (Level 5: growth control rate is above 85%). Moreover, in the assay on Amaranthus retroflexus, the “weeding effect … Amaranthus retroflexus” value is recorded as 5 (Level 5: growth control rate is above 85%).
Regarding `CSc1c(C(=O)Nc2nnc(C)o2)ccc(C(F)(F)F)c1[S@+]([O-])CCCl` [Compound 562], the “weeding effect … Abutilon theophrasti” value with Abutilon theophrasti is given as 5 (Level 5: growth control rate is above 85%). Further, the “weeding effect … Echinochloa crusgali” value with Echinochloa crusgali is given as 5 (Level 5: growth control rate is above 85%). In addition, in the assay on Digitaria sanguinalis, the “weeding effect … Digitaria sanguinalis” value is 5 (Level 5: growth control rate is above 85%). In the assay on Setaria viridis, the “weeding effect … Setaria viridis” value is 5 (Level 5: growth control rate is above 85%). Besides, the “weeding effect … Amaranthus retroflexus” value in the assay on Amaranthus retroflexus is listed as 5 (Level 5: growth control rate is above 85%).
Regarding `Cc1nnc(NC(=O)c2ccc(C(F)(F)F)c([S@+]([O-])C(F)(F)C(F)(F)F)c2F)o1` [Compound 31], the “weeding effect … Abutilon theophrasti” value in the assay on Abutilon theophrasti is reported as 5 (Level 5: growth control rate is above 85%). Besides, the “weeding effect … Echinochloa crusgali” value with Echinochloa crusgali is 5 (Level 5: growth control rate is above 85%). The “weeding effect … Digitaria sanguinalis” value in the assay on Digitaria sanguinalis is 5 (Level 5: growth control rate is above 85%). Besides, the “weeding effect … Setaria viridis” value with Setaria viridis was 5 (Level 5: growth control rate is above 85%). Besides, in the assay on Amaranthus retroflexus, the “weeding effect … Amaranthus retroflexus” value is listed as 5 (Level 5: growth control rate is above 85%).
Consider `COc1c(C(=O)Nc2nnc(C)o2)ccc(C(F)(F)F)c1[S@+]([O-])CCC(F)(F)C(F)(F)F` [Compound 329], for which the “weeding effect … Abutilon theophrasti” value in the assay with Abutilon theophrasti is recorded as 5 (Level 5: growth control rate is above 85%). Moreover, the “weeding effect … Echinochloa crusgali” value with Echinochloa crusgali is 5 (Level 5: growth control rate is above 85%). In addition, the “weeding effect … Digitaria sanguinalis” value in the assay on Digitaria sanguinalis is listed as 5 (Level 5: growth control rate is above 85%). Moreover, the “weeding effect … Setaria viridis” value in the assay with Setaria viridis is reported as 5 (Level 5: growth control rate is above 85%). Also, the “weeding effect … Amaranthus retroflexus” value with Amaranthus retroflexus is listed as 5 (Level 5: growth control rate is above 85%).
Take `COc1c(C(=O)Nc2nnc(C)o2)ccc(C(F)(F)F)c1[S@+]([O-])C(C)C` [Compound 307]: the “weeding effect … Abutilon theophrasti” value in the assay on Abutilon theophrasti is given as 5 (Level 5: growth control rate is above 85%). The “weeding effect … Echinochloa crusgali” value in the assay on Echinochloa crusgali is 5 (Level 5: growth control rate is above 85%). In the assay on Digitaria sanguinalis, the “weeding effect … Digitaria sanguinalis” value was 5 (Level 5: growth control rate is above 85%). Also, the “weeding effect … Setaria viridis” value in the assay on Setaria viridis is recorded as 5 (Level 5: growth control rate is above 85%). Further, the “weeding effect … Amaranthus retroflexus” value in the assay on Amaranthus retroflexus was 5 (Level 5: growth control rate is above 85%).
With `COc1c(C(=O)Nc2nnc(C)o2)ccc(C(F)(F)F)c1[S@+]([O-])CCN(C)C` [Compound 340], the “weeding effect … Abutilon theophrasti” value in the assay with Abutilon theophrasti was 5 (Level 5: growth control rate is above 85%). For the same compound, the “weeding effect … Echinochloa crusgali” value with Echinochloa crusgali is recorded as 5 (Level 5: growth control rate is above 85%). Also, the “weeding effect … Digitaria sanguinalis” value with Digitaria sanguinalis is given as 5 (Level 5: growth control rate is above 85%). Moreover, the “weeding effect … Setaria viridis” value in the assay on Setaria viridis is reported as 5 (Level 5: growth control rate is above 85%). The “weeding effect … Amaranthus retroflexus” value with Amaranthus retroflexus was 5 (Level 5: growth control rate is above 85%).
On to `Cc1nnc(NC(=O)c2ccc(C(F)(F)F)c([S@+]([O-])CCC(F)(C(F)(F)F)C(F)(F)F)c2F)o1` [Compound 36], for which, in the assay on Abutilon theophrasti, the “weeding effect … Abutilon theophrasti” value is recorded as 5 (Level 5: growth control rate is above 85%). In addition, in the assay on Echinochloa crusgali, the “weeding effect … Echinochloa crusgali” value was 5 (Level 5: growth control rate is above 85%). Moreover, the “weeding effect … Digitaria sanguinalis” value with Digitaria sanguinalis is recorded as 5 (Level 5: growth control rate is above 85%). The “weeding effect … Setaria viridis” value with Setaria viridis is given as 5 (Level 5: growth control rate is above 85%). Further, the “weeding effect … Amaranthus retroflexus” value in the assay on Amaranthus retroflexus is given as 5 (Level 5: growth control rate is above 85%).
As to `CSc1c(C(=O)Nc2nnc(C)o2)ccc(C(F)(F)F)c1[S@+]([O-])CCF` [Compound 555], in the assay on Abutilon theophrasti, the “weeding effect … Abutilon theophrasti” value is given as 5 (Level 5: growth control rate is above 85%). Moreover, the “weeding effect … Echinochloa crusgali” value in the assay on Echinochloa crusgali was 5 (Level 5: growth control rate is above 85%). The “weeding effect … Digitaria sanguinalis” value with Digitaria sanguinalis was 5 (Level 5: growth control rate is above 85%). The “weeding effect … Setaria viridis” value in the assay on Setaria viridis was 5 (Level 5: growth control rate is above 85%). In addition, the “weeding effect … Amaranthus retroflexus” value with Amaranthus retroflexus is on record as 5 (Level 5: growth control rate is above 85%).
For `Cc1nnc(NC(=O)c2ccc(C(F)(F)F)c([S@+]([O-])CC(C)(F)F)c2F)o1` [Compound 29], in the assay on Abutilon theophrasti, the “weeding effect … Abutilon theophrasti” value is listed as 5 (Level 5: growth control rate is above 85%). Further, the “weeding effect … Echinochloa crusgali” value with Echinochloa crusgali was 5 (Level 5: growth control rate is above 85%). Further, in the assay on Digitaria sanguinalis, the “weeding effect … Digitaria sanguinalis” value was 5 (Level 5: growth control rate is above 85%). The “weeding effect … Setaria viridis” value in the assay on Setaria viridis is on record as 5 (Level 5: growth control rate is above 85%). Also, the “weeding effect … Amaranthus retroflexus” value in the assay on Amaranthus retroflexus is 5 (Level 5: growth control rate is above 85%).
As to `CCc1nnc(NC(=O)c2ccc(C(F)(F)F)c([S@+]([O-])CC)c2OC)o1` [Compound 424], the “weeding effect … Abutilon theophrasti” value in the assay on Abutilon theophrasti was 5 (Level 5: growth control rate is above 85%). Moreover, the “weeding effect … Echinochloa crusgali” value in the assay with Echinochloa crusgali is recorded as 5 (Level 5: growth control rate is above 85%). Also, in the assay with Digitaria sanguinalis, the “weeding effect … Digitaria sanguinalis” value is listed as 5 (Level 5: growth control rate is above 85%). The “weeding effect … Setaria viridis” value in the assay with Setaria viridis is reported as 5 (Level 5: growth control rate is above 85%). For the same compound, in the assay with Amaranthus retroflexus, the “weeding effect … Amaranthus retroflexus” value is given as 5 (Level 5: growth control rate is above 85%).
On to `C#CCC[S@@+]([O-])c1c(C(F)(F)F)ccc(C(=O)Nc2nnc(C)o2)c1OC` [Compound 315], for which the “weeding effect … Abutilon theophrasti” value with Abutilon theophrasti is given as 5 (Level 5: growth control rate is above 85%). In addition, in the assay on Echinochloa crusgali, the “weeding effect … Echinochloa crusgali” value is recorded as 5 (Level 5: growth control rate is above 85%). Besides, the “weeding effect … Digitaria sanguinalis” value with Digitaria sanguinalis is reported as 5 (Level 5: growth control rate is above 85%). Moreover, the “weeding effect … Setaria viridis” value with Setaria viridis is reported as 5 (Level 5: growth control rate is above 85%). In the assay on Amaranthus retroflexus, the “weeding effect … Amaranthus retroflexus” value is listed as 5 (Level 5: growth control rate is above 85%).
For `COCCC[S@@+]([O-])c1c(C(F)(F)F)ccc(C(=O)Nc2nnc(C)o2)c1F` [Compound 75], in the assay with Abutilon theophrasti, the “weeding effect … Abutilon theophrasti” value is reported as 5 (Level 5: growth control rate is above 85%). The “weeding effect … Echinochloa crusgali” value with Echinochloa crusgali is on record as 5 (Level 5: growth control rate is above 85%). Moreover, the “weeding effect … Digitaria sanguinalis” value in the assay on Digitaria sanguinalis is 5 (Level 5: growth control rate is above 85%). Further, the “weeding effect … Setaria viridis” value in the assay on Setaria viridis was 5 (Level 5: growth control rate is above 85%). For the same compound, the “weeding effect … Amaranthus retroflexus” value in the assay on Amaranthus retroflexus was 5 (Level 5: growth control rate is above 85%).
For the compound `Cc1nnc(NC(=O)c2ccc(C(F)(F)F)c([S@+]([O-])CC(C)Cl)c2F)o1` (stereo partly shown) [Compound 38], in the assay with Abutilon theophrasti, the “weeding effect … Abutilon theophrasti” value is 5 (Level 5: growth control rate is above 85%). Also, in the assay on Echinochloa crusgali, the “weeding effect … Echinochloa crusgali” value was 5 (Level 5: growth control rate is above 85%). Also, the “weeding effect … Digitaria sanguinalis” value in the assay on Digitaria sanguinalis is recorded as 5 (Level 5: growth control rate is above 85%). For the same compound, the “weeding effect … Setaria viridis” value in the assay on Setaria viridis is 5 (Level 5: growth control rate is above 85%). In the assay with Amaranthus retroflexus, the “weeding effect … Amaranthus retroflexus” value is reported as 5 (Level 5: growth control rate is above 85%).

These data come from US12643871B2, “Aryl formamide compound containing chiral sulfur oxide or salt thereof, preparation method, herbicidal composition and use thereof” (Qingdao Kingagroot Chemical Compound Co., Ltd., priority 2019, dated 2026).
